Reference: paper PMC8214221, “Sequence determinants in the cathelicidin LL-37 that promote inflammation via presentation of RNA to scavenger receptors” (The Journal of Biological Chemistry, 2021)
Residues, ends and D or L forms follow the SMILES beside them.

Assays:
[1] = tested on: S. aureus strain USA300 and SA112, GAS; assay: Bacterial growth inhibition (OD600), Gram-positive strains; assay type: cell-based, Staphylococcus aureus; group A Streptococcus; conditions: 0-50 µM overnight, OD 600, n = 3, S. aureus USA300, SA113 (SA112 in text)
Description: (§1) We further looked at mRNA abundance by quantitative RT-PCR (qRT-PCR) to evaluate gene expression for type 1 interferon IFNB1, chemokine CXCL10, and cytokines TSLP and IL6 in NHEKs treated with selected LL-34 parent, LL-34—F5A, I24A, F27A, and L31A—peptides either alone or in combination with U1 dsRNA for 18 h (Fig. 1, E–H).
(§2) Methicillin-resistant S. aureus USA300 and methicillin-sensitive S. aureus SA113 (American Type Culture Collection 35556) were cultured in 3% tryptic soy broth overnight at 37 °C with shaking at 250 rpm. GAS M49 strain NZ131 was cultured in Todd Hewitt broth supplemented with 1% yeast extract overnight at 37 °C without shaking. E. coli R1 strain RS218 was cultured in LB broth overnight at 37 °C with shaking at 250 rpm. MIC values were determined using a round-bottom 96-well microdilution method with RPMI cell culture media (as a source of Ca^2+ and Mg^2+) supplemented with tryptic soy broth, Todd Hewitt broth/yeast extract, or LB to facilitate growth of the respective bacterial strains. Overnight bacterial cultures were subcultured into fresh broth and grown to midlate log phase indicated by an absorbance at 600 nm value between 0.8 and 1.0 for each bacterial strain. The absorbance was then normalized to provide a concentration of 1 × 10^7 colony-forming units/ml in RPMI medium. The LL-34 parent and alanine scan mutants were serially diluted into the 96-well microtiter plates containing prewarmed RPMI bacterial growth medium. A 10 μl aliquot of the midlate log phase bacteria was inoculated into the 96-well microtiter plates that contained 95 μl of RPMI medium with or without the LL-34 peptide dilutions and incubated for 16 to 18 h at […] with shaking at 200 rpm. Inhibition of growth was determined by measuring the absorbance at 600 nm readings of each well using a microplate reader (Infinite M200 Pro; Tecan). The MIC of each bacterial strain was determined by the lowest peptide concentration that inhibited more than 80% bacterial growth.
(§3) (A) NHEKs and HDMECs (B) were treated with LL34- parent peptide and all the 34 alanine substituted peptides (Pep L1A-Pep R34A) and LL37 at 2 µM for 16 h. IL-6 protein secretion was assessed with ELISA (n=3) (C-F) LL34-Parent, LL34 F5A, LL34 I24A, LL34 F27A, and LL34 L31A peptides were incubated with S. aureus USA 300, S. aureus SA113, Group A Streptococcus (GAS) and E. coli at increasing concentrations (0-50 µM) overnight, and bacterial culture growth was assayed as absorbance at OD 600 (n=3).

[2] = tested on: TBK1 and IRF7 phosphorylation in NHEKs; assay: Immunoblot of MAVS pathway signaling in NHEKs; assay type: cell-based, human; conditions: U1 dsRNA 2.5 μg/ml + peptide 2 μM, in comparison to U1 + LL-34 parent
Source text: RNA-Seq was utilized to obtain a global transcriptomic profile and map unique immune pathways in NHEKs exposed to U1 dsRNA, LL-34 parent, Pep I24A, Pep L31A, and a combination of U1 dsRNA and LL-34 parent, Pep I24A, or Pep L31A. […] Similarly, 448 and 325 unique differentially regulated genes were observed after U1 + I24A and U1 + L31A treatments, respectively (Fig. 3, A and B and Fig. S2, A and B). […] These pathways included type 1 interferon signaling, cytokine signaling, response to external biotic stimulus, and cytokine-mediated signaling pathway. […] We verified the repression of mitochondrial antiviral signaling (MAVS) with immunoblot analysis. […]
Figure 3 LL-34 I24A and L31A mutations result in loss of innate immune vetting of U1 dsRNA leading to repressed activation of antiviral and innate immune pathways.A, Venn diagram for all differentially expressed genes from NHEKs treated with U1 dsRNA, LL-34-parent, and combinations of either U1 dsRNA and LL-34-parent. […] Protein expression of p-TBK1, TBK1, p-IRF7, IRF7, p-Akt, Akt, p-ERK1/2, and ERK1/2 was assessed with immunoblot. […]
Cells were lysed in complete radioimmunoprecipitation assay buffer with added 1× protease and Phosphatase Inhibitor Cocktail (Life Technologies). […] Total protein was quantified for each treatment with Bio-Rad Protein Assay (Bio-Rad). […]

[3] = tested on: Escherichia coli; assay: Bacterial growth inhibition (OD600), E. coli; assay type: cell-based; conditions: 0-50 µM overnight, OD 600, n = 3
Description: as §1, §2, §3

Row | SMILES | Capacity to inhibit growth of Gram-positive bacteria [1] | Phosphorylation of TBK1 and IRF7 [2] | Action against Gram-negative E. coli [3]
1 | CC[C@H](C)[C@H](NC(=O)[C@H](CCCCN)NC(=O)[C@H](CCC(=O)O)NC(=O)[C@H](CCCCN)NC(=O)[C@H](CO)NC(=O)[C@H](CCCCN)NC(=O)[C@H](CCCNC(=N)N)NC(=O)[C@H](Cc1ccccc1)NC(=O)[C@H](Cc1ccccc1)NC(=O)[C@H](CC(=O)O)NC(=O)CNC(=O)[C@H](CC(C)C)NC(=O)[C@@H](N)CC(C)C)C(=O)NCC(=O)N[C@@H](CCCCN)C(=O)N[C@@H](CCC(=O)O)C(=O)N[C@@H](Cc1ccccc1)C(=O)N[C@@H](CCCCN)C(=O)N[C@@H](CCCNC(=N)N)C(=O)N[C@H](C(=O)N[C@H](C(=O)N[C@@H](CCC(N)=O)C(=O)N[C@@H](CCCNC(=N)N)C(=O)N[C@@H](C)C(=O)N[C@@H](CCCCN)C(=O)N[C@@H](CC(=O)O)C(=O)N[C@@H](Cc1ccccc1)C(=O)N[C@@H](CC(C)C)C(=O)N[C@@H](CCCNC(=N)N)C(=O)N[C@@H](CC(N)=O)C(=O)N[C@@H](CC(C)C)C(=O)N[C@H](C(=O)N1CCC[C@H]1C(=O)N[C@@H](CCCNC(=N)N)C(=O)O)C(C)C)C(C)C)[C@@H](C)CC [LL-34—I24A] (H-LLGDFFRKSKEKIGKEFKRIVQRAKDFLRNLVPR-OH) | increased capacity to inhibit growth of most of the tested Gram-positive bacteria | Decreased phosphorylation | little action
2 | CC[C@H](C)[C@H](NC(=O)[C@H](CCCCN)NC(=O)[C@H](CCC(=O)O)NC(=O)[C@H](CCCCN)NC(=O)[C@H](CO)NC(=O)[C@H](CCCCN)NC(=O)[C@H](CCCNC(=N)N)NC(=O)[C@H](Cc1ccccc1)NC(=O)[C@H](Cc1ccccc1)NC(=O)[C@H](CC(=O)O)NC(=O)CNC(=O)[C@H](CC(C)C)NC(=O)[C@@H](N)CC(C)C)C(=O)NCC(=O)N[C@@H](CCCCN)C(=O)N[C@@H](CCC(=O)O)C(=O)N[C@@H](Cc1ccccc1)C(=O)N[C@@H](CCCCN)C(=O)N[C@@H](CCCNC(=N)N)C(=O)N[C@H](C(=O)N[C@H](C(=O)N[C@@H](CCC(N)=O)C(=O)N[C@@H](CCCNC(=N)N)C(=O)N[C@H](C(=O)N[C@@H](CCCCN)C(=O)N[C@@H](CC(=O)O)C(=O)N[C@@H](Cc1ccccc1)C(=O)N[C@@H](CC(C)C)C(=O)N[C@@H](CCCNC(=N)N)C(=O)N[C@@H](CC(N)=O)C(=O)N[C@@H](C)C(=O)N[C@H](C(=O)N1CCC[C@H]1C(=O)N[C@@H](CCCNC(=N)N)C(=O)O)C(C)C)[C@@H](C)CC)C(C)C)[C@@H](C)CC [LL-34—L31A] (H-LLGDFFRKSKEKIGKEFKRIVQRIKDFLRNAVPR-OH) | increased capacity to inhibit growth of most of the tested Gram-positive bacteria | Decreased phosphorylation | little action
